Values of other authors, collected in patent US6384213B1, “Process for preparing a pure, pharmacopoeial grade amorphous form of cefuroxime axetil” (Ranbaxy Laboratories Limited, priority 1998, dated 2002).

Key:
[1] = amorphous form essentially free from crystalline material, purity at least 95%
[2] = amorphous form essentially free from crystalline material, purity at least 95%, compared with crystalline form

chemical stability [1]: adequate chemical stability
Structure (SMILES): CO/N=C(\C(=O)N[C@@H]1C(=O)N2C(C(=O)OC(C)OC(C)=O)=C(COC(N)=O)CS[C@H]12)c1ccco1 (some centres unmarked) [cefuroxime axetil in amorphous form, cefuroxime axetil]
bioavailability [2]: higher bioavailability than the crystalline form
